Experimental data as given in patent US7951990B2, “Method and means for determining fitness in plants” (Bayer Bioscience N.V., priority 2001, dated 2011).

Legend:
Type in all cases: cell-based, Brassica napus
[1] = system: cytochromal and alternative respiratory pathways
[2] = system: superoxide production by the hypocotyl explants; test: quantification of superoxide production by hypocotyl explants (XTT reduction); conditions: 25 mg/l, incubation for 18 hours; all four hybrid lines
[3] = system: electron flow in the mitochondrial electron transport chain (TTC-reducing capacity of hypocotyl explants); test: vigour assay (TTC-assay) with acetylsalicylic acid added to the incubation medium; conditions: for TTC-reducing capacity after treatment versus control condition / TTC-reducing capacity after treatment: 25 mg/l; for TTC-reducing capacity after treatment versus control condition: about 18 hours

| SMILES | influence on the TTC reduction [1] | XTT reduction (superoxides) [2] | TTC-reducing capacity after treatment versus control condition ([3]; hybrid line 13 (lowest seed yield)) | TTC-reducing capacity after treatment versus control condition ([3]; hybrid line 41 (highest seed yield)) | TTC-reducing capacity after treatment ([3]; parental line DH7 (poor combining ability)) | TTC-reducing capacity after treatment ([3]; parental lines A and B (excellent combining ability)) | TTC-reducing capacity after treatment ([3]; parental lines DH4, DH5 and DH10 (moderate to good combining ability)) | TTC-reducing capacity ([3]; 50 mg/l, best performing hybrid lines) | TTC-reducing capacity ([3]; 50 mg/l, hybrid lines with a less pronounced heterosis) | TTC-reducing capacity ([3]; 100 mg/l, best performing hybrid lines) |
| --- | --- | --- | --- | --- | --- | --- | --- | --- | --- | --- |
| O=C(NO)c1ccccc1O [SHAM, salicylhydroxamic acid] | does not seem to have a major influence |  |  |  |  |  |  |  |  |  |
| CC(=O)Oc1ccccc1C(=O)O [acetylsalicylic acid] |  | lower amounts of XTT were reduced | increased drastically | strongest decrease | high increase | decreased | no or only a small increase | increased | didn't show at 50 mg/l acetylsalicylic acid this increase | decrease again |
